The test system of one test is B. cereus ATCC 11778. Description: MIC, NCCLS broth microdilution, B. cereus. It is filed as cell-based, Bacillus cereus. The method in brief: (§1)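 Following NCCLS guidance, in vitro activity is measured as MIC with the microtiter broth microdilution reference method. For yeast, the procedure recommended in the 1995 Manual of Clinical Microbiology applies.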
A general note: In broth dilution the organism is exposed to a series of concentrations in liquid medium.

For the next test, the system named is C. albicans ATCC 38247. Description: MIC, antifungal assay, C. albicans. Type of test: cell-based, Candida albicans. The method in brief: as §1
The subject of another test is E. faecalis ATCC 29212. Description: MIC, NCCLS broth microdilution, E. faecalis. Type of test: cell-based, Enterococcus faecalis. In a few lines: as §1
The test system of a further test is S. aureus ATCC 13709. Description: MIC, NCCLS broth microdilution, S. aureus MSSA. It is filed as cell-based, Staphylococcus aureus. To be noted: S. aureus ATCC 13709, methicillin sensitive strain (MSSA). In a few lines:
as §1

The next test concerns S. aureus ATCC 27660. Briefly: MIC, NCCLS broth microdilution, S. aureus MRSA. The note with it: S. aureus ATCC 27660, methicillin resistant strain (MRSA). It is filed as cell-based, Staphylococcus aureus. In a few lines:
as §1

In a further test the test system is S. aureus ATCC 33591. Briefly: MIC, NCCLS broth microdilution, S. aureus ATCC 33591. Type of test: cell-based, Staphylococcus aureus. In a few lines:
as §1

The next test has as its system S. pneumoniae ATCC 49619. Description: MIC, NCCLS broth microdilution, S. pneumoniae. Type of test: cell-based, Streptococcus pneumoniae. In a few lines: as §1
The next test concerns E. faecium ATCC 51559. Description: MIC, E. faecium VRE. The note with it: Table C; E. faecium ATCC 51559, vancomycin resistant strain (VRE). It is filed as cell-based, Enterococcus faccium. The method, then:
(§2) Compounds according to this invention were screened for their in vitro activities against selected species of bacteria and fungi. The minimal inhibition concentration (MIC) of these compounds was determined using the National Committee for Clinical Laboratory Standards (NCCLS) broth microdilution assay in microtiter plates, as set forth in: (1) the guidelines of the National Committee for Clinical Laboratory Standards (NCCLS) Document M7-A4 (NCCLS, 1997); (2) the guidelines of the National Committee for Clinical Laboratory Standards (NCCLS) Document M11-A4 (NCCLS, 1997); and (3) the guidelines and reference method of the National Committee for Clinical Laboratory Standards (NCCLS) Document M27-T (NCCLS, 1995). For antifungal assays, the method recommended in Murray, P R., 1995 Manual of Clinical Microbiology (ASM Press, Washington, D.C.), was employed.
(§3) Additionally, some compounds were screened against Enterococcus faccium (ATCC 51559, a vancomycin resistant strain (VRE)), Staphylococcus epidermidis (ATCC 12228), Streptococcus pneumoniae (ATCC 51422, a penicillin resistant strain (PRSP)), and/or Streptococcus pyogenes (ATCC 49399).

Test [1] has as its system S. epidermidis ATCC 12228. Description: MIC, S. epidermidis. Type of test: cell-based, Staphylococcus epidermidis. The note with it: Table C. The method, then: as §2, §3
Another test concerns S. pneumoniae ATCC 51422. Description: MIC, S. pneumoniae PRSP. It is filed as cell-based, Streptococcus pneumoniae. To be noted: Table C; S. pneumoniae ATCC 51422, penicillin resistant strain (PRSP). The method, then: as §2, §3
For another test, the system named is S. pyogenes ATCC 4399. Briefly: MIC, S. pyogenes. Type of test: cell-based, Streptococcus pyogenes. To be noted: Table C. The method, then: as §2, §3
The nature of test [2]: MIC, Table C (organism not given). It is filed as cell-based. The method, then: as §2, §3

Structures are written as SMILES. A value given as a limit tells only on which side of the number the result lay.

For `Cn1cc(NC(=O)c2cc(NC(=O)c3ccc(Cl)cc3F)cn2CCCN2CCC(F)(F)CC2)cc1-c1nc2cccnc2[nH]1` [Compound A-43], the “Minimum Inhibitory Concentration (MIC), organism A” value with B. cereus ATCC 11778 was “+++ (MIC ≦ 4 μg/mL)”; in the test with E. faecium ATCC 51559 it was “+++ (MIC ≦ 4 pg/mL)”. The “Minimum Inhibitory Concentration (MIC), organism B” value in the test with C. albicans ATCC 38247 was above 32 µg/mL; in test [1], “+++ (MIC ≦ 4 pg/mL)”. Moreover, the “Minimum Inhibitory Concentration (MIC), organism C” value in the test on E. faecalis ATCC 29212 and in the test with S. pneumoniae ATCC 51422 was “++ (4 < MIC < 12 μg/mL)” throughout. In addition, the “Minimum Inhibitory Concentration (MIC), organism D” value with S. aureus ATCC 13709 and with S. pyogenes ATCC 4399 was “++ (4 < MIC < 12 μg/mL)” throughout. In addition, the “Minimum Inhibitory Concentration (MIC), organism E” value in the test with S. aureus ATCC 27660 is “+++ (MIC ≦ 4 μg/mL)”; in [2], “+++ (MIC ≦ 4 pg/mL)”. In addition, in the test with S. aureus ATCC 33591, the “Minimum Inhibitory Concentration (MIC), organism F” value is “++ (4 < MIC < 12 μg/mL)”. The “Minimum Inhibitory Concentration (MIC), organism G” value with S. pneumoniae ATCC 49619 is recorded as “+++ (MIC ≦ 4 μg/mL)”.

Source of the values: US7265129B2, “Anti-infective biaryl compounds” (priority 2002, dated 2007).
